pIC50: −log10 of the molar value.
Target: p97 ATPase WT (Homo sapiens (Human), UniProt P55072)
Assay: p97 ADP-Glo assay
Format: biochemical
Settings: Table 3
Text: ADP-Glo™ (Promega Corp.) is a bioluminescent, homogeneous assay that measures ADP formed from a biochemical reactions. Because of its high sensitivity, the assay is suitable for monitoring enzyme activities at very early substrate conversions requiring very low amount of enzymes.
The ADP-Glo assay can be conducted as described in Chou, T.-F.; Bulfer, S. L.; Weihl, C.

p97 ATPase WT, sequence (P55072 whole entry): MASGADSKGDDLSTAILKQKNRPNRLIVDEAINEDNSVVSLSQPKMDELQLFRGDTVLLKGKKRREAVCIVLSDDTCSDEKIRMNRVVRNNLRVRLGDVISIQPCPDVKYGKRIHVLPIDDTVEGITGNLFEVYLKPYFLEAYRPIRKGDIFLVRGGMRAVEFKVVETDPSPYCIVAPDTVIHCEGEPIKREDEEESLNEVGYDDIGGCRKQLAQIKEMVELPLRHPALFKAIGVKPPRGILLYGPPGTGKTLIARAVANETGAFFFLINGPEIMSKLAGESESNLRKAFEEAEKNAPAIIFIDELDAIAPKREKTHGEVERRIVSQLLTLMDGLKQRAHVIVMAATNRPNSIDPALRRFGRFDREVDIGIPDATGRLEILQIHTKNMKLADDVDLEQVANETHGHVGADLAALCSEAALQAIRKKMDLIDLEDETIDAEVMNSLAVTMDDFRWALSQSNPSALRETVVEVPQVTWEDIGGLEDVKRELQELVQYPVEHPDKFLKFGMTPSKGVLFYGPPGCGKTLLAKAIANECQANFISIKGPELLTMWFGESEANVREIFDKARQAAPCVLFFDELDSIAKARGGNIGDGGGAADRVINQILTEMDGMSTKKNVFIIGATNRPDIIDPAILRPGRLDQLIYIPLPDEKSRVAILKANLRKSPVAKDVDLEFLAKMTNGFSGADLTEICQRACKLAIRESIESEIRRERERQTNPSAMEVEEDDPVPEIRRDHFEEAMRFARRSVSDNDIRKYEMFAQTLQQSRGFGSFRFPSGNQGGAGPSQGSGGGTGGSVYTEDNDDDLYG

CC(C)N1CCC(NC2CCN(c3cccc(-c4cc5cc(C#N)ccc5[nH]4)c3)CC2)CC1
pIC50: 5.21
